The results in this text go back to patent US6703536B2, “Disposable absorbent article having a skin care composition containing an enzyme inhibitor” (The Procter & Gamble Company, priority 1998, dated 2004).

Where a name gives a salt, the structure may show the parent alone. Read-outs that look alike come from different tables or passages of the source. Square brackets hold non-standard residues; d marks the D form. Peptide text beside a SMILES is read from it. * marks the point of attachment. Sta = CC(C)C[C@H](N)[C@@H](O)CC(=O)O; Isovaleryl = CC(C)CC(=O)*

The target of assay [1] is T1, purified leucine aminopeptidase (LAP) (Sus scrofa, UniProt P15145).
T1 construct: purchased Sigma, St. Louis, Mo; L5006
T1 sequence (P15145 1-963): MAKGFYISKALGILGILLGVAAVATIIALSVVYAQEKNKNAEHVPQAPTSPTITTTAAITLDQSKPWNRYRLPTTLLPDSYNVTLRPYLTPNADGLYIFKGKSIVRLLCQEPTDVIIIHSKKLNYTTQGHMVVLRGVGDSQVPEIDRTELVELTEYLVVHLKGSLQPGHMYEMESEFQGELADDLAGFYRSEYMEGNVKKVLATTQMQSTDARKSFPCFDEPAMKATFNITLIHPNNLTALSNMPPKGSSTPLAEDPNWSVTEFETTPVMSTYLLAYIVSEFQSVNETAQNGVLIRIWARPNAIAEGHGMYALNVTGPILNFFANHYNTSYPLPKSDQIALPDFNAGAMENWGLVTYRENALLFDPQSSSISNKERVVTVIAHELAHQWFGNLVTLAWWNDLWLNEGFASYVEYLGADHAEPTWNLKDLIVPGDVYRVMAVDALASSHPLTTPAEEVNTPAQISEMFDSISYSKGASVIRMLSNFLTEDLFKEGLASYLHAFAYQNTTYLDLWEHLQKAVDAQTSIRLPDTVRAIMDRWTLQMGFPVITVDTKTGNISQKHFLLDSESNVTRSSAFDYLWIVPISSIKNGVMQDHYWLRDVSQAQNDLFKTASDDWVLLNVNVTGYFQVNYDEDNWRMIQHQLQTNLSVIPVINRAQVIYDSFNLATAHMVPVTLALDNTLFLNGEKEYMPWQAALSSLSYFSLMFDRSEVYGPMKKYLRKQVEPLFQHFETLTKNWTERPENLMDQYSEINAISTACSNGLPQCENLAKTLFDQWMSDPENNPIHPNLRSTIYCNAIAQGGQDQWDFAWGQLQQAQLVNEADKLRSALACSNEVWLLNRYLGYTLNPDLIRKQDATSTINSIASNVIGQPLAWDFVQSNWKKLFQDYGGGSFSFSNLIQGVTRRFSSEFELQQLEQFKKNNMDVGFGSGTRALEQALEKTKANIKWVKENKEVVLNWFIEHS
Description: Purified Leucine Aminopeptidase Activity (Purified Enzyme Method). It is filed as biochemical. Here is the method: The IC50 is calculated according to the equation IC50=[I]/[(v/vi)−1], where [I] is the inhibitor concentration tested, v is the rate of substrate cleavage in the absence of the inhibitor and vi is the rate of substrate cleavage in the presence of the inhibitor. As described further below, the IC50 of an enzyme inhibitor according to the invention may be measured by a Purified Enzyme method, by a Specific Fecal Enzyme method or by a General Fecal Enzymes method.
Standard in vitro assays for enzyme activity, and inhibition of enzyme activity, are well known. The reagents used to conduct these tests are generally commercially available. In general, a simple system comprises an enzyme-specific substrate which, when hydrolyzed by the enzyme, produces a colored product. The activity of the enzyme is measured spectrophotometrically as the degree of development of the colored product (i.e., the rate of color change) over a predetermined time period. […] The following are exemplary methods that may be utilized to determine the inhibitory activity of enzyme inhibitors against A) purified enzymes known to exist in feces, B) specific enzyme activity in the feces itself and C) general enzyme activity in the feces itself. These methods are not intended to be limiting, however, as other methods, other substrates, other inhibitors and the like may be used to test activity against a wide variety of fecal enzymes, as known to one skilled in the art.
For each of the following exemplary Purified Enzyme Methods, Specific Fecal Enzyme Methods, General Fecal Enzymes Method, Purified Lipase activity assay, Fecal Lipase activity assay, Purified Urease activity assay, Fecal Urease activity assay, Purified Amylase activity assay, and Fecal Amylase activity assay, the IC50 for each inhibitor tested may be calculated according to the following equation: […]
where [I] is the inhibitor concentration tested, v is the rate of substrate cleavage in the absence of inhibitor and vi is the rate of substrate cleavage in the presence of inhibitor.
In the methods, v and vi are measured as the change in absorbance (optical density, OD) at a given wavelength/time (e.g., minutes).
To test the efficacy of protease inhibitors against purified leucine aminopeptidase (LAP), 0.05 mL of a putative inhibitor and 0.125 mL of 0.06 U/mL LAP (e.g., Sigma, St. Louis, Mo., catalogue no. L5006) in LAP buffer (50 mM sodium phosphate, pH 7.2) are added to a microcuvette. The cuvette is incubated at 25° C. for 10 minutes. […] The same procedure is repeated without the putative inhibitor. […] The rates, vi and v, and the inhibitor concentration [I] are used to calculate IC50 according to the equation expressed above.

The target of assay [2] is chymotrypsin activity in feces. Description: Fecal Chymotrypsin Activity (Specific Fecal Enzyme Method). The format is biochemical. Conditions: pooled infant fecal suspension, pH 7.6, 25° C.; read-out: IC50 Specific Fecal Enzyme Methods Chymotryp. The source says:
The following is a general description of a method for obtaining a sample of feces suitable for use in Fecal Protease Methods. However, one skilled in the art will be able to adapt the method to obtain appropriate samples of feces suitable for use in any of the Specific Fecal Protease Methods listed below (i.e., lipase, urease, and amylase) without undue experimentation. […] Pooled infant feces (at least five different samples) are collected in a manner to keep them free of urine and contamination and mixed with water to obtain a weight by weight (w/w) mixture (e.g., 1:50 w/w). This mixture is then mixed thoroughly to obtain a homogeneous suspension by homogenization or sonication. […] (Also, to ensure complete linearity the final absorbance should never exceed 1.5 OD405 units). If the activity of the pooled infant feces is outside this range, it is not possible to accurately determine IC50 values for putative protease inhibitors. However, the range of enzyme activity may be adjusted by increasing or decreasing the dilution factor accordingly for each enzyme. If this is not possible, a different group of subjects should be used to obtain the sample pool. […] The cuvette is mixed by inversion and incubated at 25° C. for 5 minutes. […] The rate of substrate cleavage in the presence of inhibitor (vi) is the slope of a plot relating the excess absorbance (i.e., the absorbance at 405 nm minus the absorbance at 490 nm) versus time. The same procedure is repeated without the putative inhibitor. The rate of substrate cleavage in the absence of inhibitor (v) is the slope of a plot relating the excess absorbance versus time. The rates, vi and v, and the inhibitor concentration [I] are used to calculate IC50 according to the equation expressed above.

Setting [3] is: purified leucine aminopeptidase, L-Leucine-p-nitroaniline, pH 7.2, 25° C., read-out: IC50 Purified Enzyme Methods LAP.

One may read the IC50 as the concentration that inhibits the measured activity by half.

Regarding `CC(C)C[C@H](NC(=O)[C@@H](NC(=O)N[C@@H](Cc1ccccc1)C(=O)O)[C@@H]1CCN=C(N)N1)C(=O)N[C@H](C=O)Cc1ccccc1` [Chymostatin], the IC50 in assay [1] (setting [3]) is greater than 500 µM; in assay [2], 0.02 µM.
For `CC1(C)[C@@H](O[C@H]2O[C@H](C(=O)O)[C@@H](O)[C@H](O)[C@H]2O[C@@H]2O[C@H](C(=O)O)[C@@H](O)[C@H](O)[C@H]2O)CC[C@]2(C)[C@H]3C(=O)C=C4[C@@H]5C[C@@](C)(C(=O)O)CC[C@]5(C)CC[C@@]4(C)[C@]3(C)CC[C@@H]12` [Glycyrrhizic Acid], the results for the IC50 in assay [1] (setting [3]) and in assay [2] were greater than 500 µM and greater than 300 µM, respectively.
The like results for `N=C(N)c1ccc(OCCCCCCOc2ccc(C(=N)N)cc2)cc1` [Hexamidine diisethionate] were, in that order, 256 µM and greater than 1000 µM.
`CC(=O)N[C@@H](CC(C)C)C(=O)N[C@@H](CC(C)C)C(=O)N[C@H](C=O)CCCNC(=N)N` [Leupeptin]: the IC50 in assay [1] (setting [3]) and in assay [2] was greater than 500 µM throughout.
For the molecule `CC(C)CC(=O)N[C@H](C(=O)N[C@H](C(=O)N[C@@H](CC(C)C)[C@@H](O)CC(=O)N[C@@H](C)C(=O)N[C@@H](CC(C)C)[C@@H](O)CC(=O)O)C(C)C)C(C)C` [Pepstatin A] (Isovaleryl-VV[Sta]A[Sta]-OH), the IC50 in assay [1] (setting [3]) is greater than 500 µM; in assay [2] it was 300 µM.
Consider `Cc1ccc(S(=O)(=O)N[C@@H](CCCCN)C(=O)CCl)cc1` [TLCK, L-1-chloro-3-[4-tosylamido]-7-amino-2-heptanone-HCl], for which the IC50 in assay [1] and in assay [2] was greater than 500 µM throughout.
For `N=C(N)c1ccc(N)cc1` [p-Amino-benzamidine], the IC50 in assay [1] (setting [3]) and in assay [2] was greater than 500 µM throughout.
Turning to Aprotinin, the IC50 in assay [1] (setting [3]) was greater than 20 µM; in assay [2], 0.22 µM.

B1: Soybean trypsin inhibitor: plant-derived trypsin inhibitor (protein, UniProt P01070 25-205, looked up)
Trypsin inhibitor A: DFVLDNEGNPLENGGTYYILSDITAFGGIRAAPTGNERCPLTVVQSRNELDKGIGTIISSPYRIRFIAEGHPLSLKFDSFAVIMLCVGIPTEWSVVEDLPEGPAVKIGENKDAMDGWFRLERVSDDEFNNYKLVFCPQQAEDDKCGDIGISIDHDDGTRRLVVSKNKPLVVQFQKLDKESL
For the molecule B1, the IC50 in assay [1] (setting [3]) is greater than 10 µM; in assay [2], 0.06 µM.
